Mutagenic call data for five molecules are collected here from PubChem BioAssay AID1259407 (Chemical Carcinogenesis Research Information System (CCRIS), 2018).

Molecules are shown by their SMILES. Active and inactive are the calls of the source. How the calls were made is not given here.

The data set deals with CCRIS mutagenicity, Ames/micronucleus/aberration tests. Description: CCRIS mutagenicity studies.
The mark [1] stands for this setting: Test System: AMES SALMONELLA TYPHIMURIUM, Strain/Indicator: TA98, Metabolic Activation: NONE, Method: STANDARD PLATE.
The mark [2] stands for this setting: Test System: AMES SALMONELLA TYPHIMURIUM, Strain/Indicator: TA100, Metabolic Activation: NONE, Method: STANDARD PLATE.
The mark [3] stands for this setting: Test System: AMES SALMONELLA TYPHIMURIUM, Strain/Indicator: TA100, Metabolic Activation: NONE, Method: PREINCUBATION

For the molecule `O=C(O)c1cc(=O)c2c(OCC(O)COc3cccc4oc(C(=O)O)cc(=O)c34)cccc2o1`, the mutagenic call is “inactive; negative” (Test System: AMES SALMONELLA TYPHIMURIUM, Strain/Indicator: TA97, Metabolic Activation: HAMSTER, LIVER, S-9, AROCLOR 1254, Method: STANDARD PLATE); “inactive; negative” (Test System: AMES SALMONELLA TYPHIMURIUM, Strain/Indicator: TA97, Metabolic Activation: NONE, Method: STANDARD PLATE); “inactive; negative” (Test System: AMES SALMONELLA TYPHIMURIUM, Strain/Indicator: TA97, Metabolic Activation: RAT, LIVER, S-9, AROCLOR 1254, Method: STANDARD PLATE); “inactive; negative” (Test System: AMES SALMONELLA TYPHIMURIUM, Strain/Indicator: TA98, Metabolic Activation: HAMSTER, LIVER, S-9, AROCLOR 1254 (2.5-20%), Method: STANDARD PLATE); “inactive; negative” (Test System: AMES SALMONELLA TYPHIMURIUM, Strain/Indicator: TA98, Metabolic Activation: HAMSTER, LIVER, S-9, AROCLOR 1254, Method: STANDARD PLATE); “inactive; negative” under setting [1]. Besides, the mutagenic call (Test System: AMES SALMONELLA TYPHIMURIUM, Strain/Indicator: TA98, Metabolic Activation: RAT, LIVER, S-9, AROCLOR 1254 (2.5-20%), Method: STANDARD PLATE) is “inactive; negative”; the mutagenic call (Test System: AMES SALMONELLA TYPHIMURIUM, Strain/Indicator: TA98, Metabolic Activation: RAT, LIVER, S-9, AROCLOR 1254, Method: STANDARD PLATE) is “inactive; negative”; the mutagenic call (Test System: AMES SALMONELLA TYPHIMURIUM, Strain/Indicator: TA100, Metabolic Activation: HAMSTER, LIVER, S-9, AROCLOR 1254, Method: STANDARD PLATE) is “inactive; negative”; the mutagenic call under setting [2] is “inactive; negative”; the mutagenic call (Test System: AMES SALMONELLA TYPHIMURIUM, Strain/Indicator: TA100, Metabolic Activation: RAT, LIVER, S-9, AROCLOR 1254, Method: STANDARD PLATE) was “inactive; negative”; the mutagenic call (Test System: AMES SALMONELLA TYPHIMURIUM, Strain/Indicator: TA1535, Metabolic Activation: HAMSTER, LIVER, S-9, AROCLOR 1254, Method: STANDARD PLATE) was “inactive; negative”. In addition, the mutagenic call was “inactive; negative” (Test System: AMES SALMONELLA TYPHIMURIUM, Strain/Indicator: TA1535, Metabolic Activation: NONE, Method: STANDARD PLATE); “inactive; negative” (Test System: AMES SALMONELLA TYPHIMURIUM, Strain/Indicator: TA1535, Metabolic Activation: RAT, LIVER, S-9, AROCLOR 1254, Method: STANDARD PLATE); “inactive; negative” (Test System: AMES SALMONELLA TYPHIMURIUM, Strain/Indicator: TA1537, Metabolic Activation: HAMSTER, LIVER, S-9, AROCLOR 1254, Method: STANDARD PLATE); “inactive; negative” (Test System: AMES SALMONELLA TYPHIMURIUM, Strain/Indicator: TA1537, Metabolic Activation: NONE, Method: STANDARD PLATE); “inactive; negative” (Test System: AMES SALMONELLA TYPHIMURIUM, Strain/Indicator: TA1537, Metabolic Activation: RAT, LIVER, S-9, AROCLOR 1254, Method: STANDARD PLATE); “inactive; negative” (Test System: AMES SALMONELLA TYPHIMURIUM, Strain/Indicator: TA1538, Metabolic Activation: HAMSTER, LIVER, S-9, AROCLOR 1254 (2.5-20%), Method: STANDARD PLATE). In addition, the mutagenic call is, setting by setting: (Test System: AMES SALMONELLA TYPHIMURIUM, Strain/Indicator: TA1538, Metabolic Activation: HAMSTER, LIVER, S-9, AROCLOR 1254, Method: STANDARD PLATE) “inactive; negative”; (Test System: AMES SALMONELLA TYPHIMURIUM, Strain/Indicator: TA1538, Metabolic Activation: NONE, Method: STANDARD PLATE) “inactive; negative”; (Test System: AMES SALMONELLA TYPHIMURIUM, Strain/Indicator: TA1538, Metabolic Activation: RAT, LIVER, S-9, AROCLOR 1254 (2.5-20%), Method: STANDARD PLATE) “inactive; negative”; (Test System: AMES SALMONELLA TYPHIMURIUM, Strain/Indicator: TA1538, Metabolic Activation: RAT, LIVER, S-9, AROCLOR 1254, Method: STANDARD PLATE) “inactive; negative”; (Test System: MOUSE LYMPHOMA, Strain/Indicator: L5178Y (TK+/TK-), Metabolic Activation: NONE, Method: SUSPENSION/PLATE) “inactive; negative; reevaluation of results: negative”; (Test System: MOUSE LYMPHOMA, Strain/Indicator: L5178Y (TK+/TK-), Metabolic Activation: RAT, LIVER, S-9, AROCLOR 1254, Method: SUSPENSION/PLATE) “inactive; negative. reevaluation of results: negative”.
On to `ClCc1ccc2c(c1)-c1cccc3cccc-2c13`, for which the mutagenic call runs as follows: under setting [1], “active; positive”; under setting [2], “active; positive”.
As for `COCCOCCOC`, the mutagenic call is, setting by setting: (Test System: AMES SALMONELLA TYPHIMURIUM, Strain/Indicator: TA98, Metabolic Activation: HAMSTER, LIVER, S-9, AROCLOR 1254 (10%), Method: PREINCUBATION) “inactive; negative”; (Test System: AMES SALMONELLA TYPHIMURIUM, Strain/Indicator: TA98, Metabolic Activation: NONE, Method: PREINCUBATION) “inactive; negative”; (Test System: AMES SALMONELLA TYPHIMURIUM, Strain/Indicator: TA98, Metabolic Activation: RAT, LIVER, S-9, AROCLOR 1254 (10%), Method: PREINCUBATION) “inactive; negative”; (Test System: AMES SALMONELLA TYPHIMURIUM, Strain/Indicator: TA100, Metabolic Activation: HAMSTER, LIVER, S-9, AROCLOR 1254 (10%), Method: PREINCUBATION) “inactive; negative”; under setting [3], “inactive; negative”; (Test System: AMES SALMONELLA TYPHIMURIUM, Strain/Indicator: TA100, Metabolic Activation: RAT, LIVER, S-9, AROCLOR 1254 (10%), Method: PREINCUBATION) “inactive; negative”. Further, the mutagenic call is, setting by setting: (Test System: AMES SALMONELLA TYPHIMURIUM, Strain/Indicator: TA1535, Metabolic Activation: HAMSTER, LIVER, S-9, AROCLOR 1254 (10%), Method: PREINCUBATION) “inactive; negative”; (Test System: AMES SALMONELLA TYPHIMURIUM, Strain/Indicator: TA1535, Metabolic Activation: NONE, Method: PREINCUBATION) “inactive; negative”; (Test System: AMES SALMONELLA TYPHIMURIUM, Strain/Indicator: TA1535, Metabolic Activation: RAT, LIVER, S-9, AROCLOR 1254 (10%), Method: PREINCUBATION) “inactive; negative”; (Test System: AMES SALMONELLA TYPHIMURIUM, Strain/Indicator: TA1537, Metabolic Activation: HAMSTER, LIVER, S-9, AROCLOR 1254 (10%), Method: PREINCUBATION) “inactive; negative”; (Test System: AMES SALMONELLA TYPHIMURIUM, Strain/Indicator: TA1537, Metabolic Activation: NONE, Method: PREINCUBATION) “inactive; negative”; (Test System: AMES SALMONELLA TYPHIMURIUM, Strain/Indicator: TA1537, Metabolic Activation: RAT, LIVER, S-9, AROCLOR 1254 (10%), Method: PREINCUBATION) “inactive; negative”.
For the molecule `ClC[C@@H]1CO1`, the mutagenic call reads like this: under setting [3], “active; positive”; under setting [2], “active; positive”; (Test System: AMES SALMONELLA TYPHIMURIUM, Strain/Indicator: TA100, Metabolic Activation: RAT, LIVER, S-9, PCB, Method: PREINCUBATION) “active; positive”.
On to `O=P1(N(CCCl)CCCl)NC(OO)CCO1` (configuration not stated), for which the mutagenic call (Test System: UDS HUMAN LYMPHOCYTES, Strain/Indicator: THY INCORP (NON-S-PHASE), Metabolic Activation: NONE, Method: LIQUID SCINTILLATION COUNTING) was “active; positive”.
